This note sets out measurements from ChEMBL document CHEMBL5247589, “Natural occurrence, bioactivity, and biosynthesis of triene-ansamycins” (Eur J Med Chem, 2022).

In one series the test system is PANC-1. Nature of the series: Antitumor activity against human PANC-1 cells incubated for 48 to 72 hrs by MTS Assay. The class given is functional, cell-based.
Series [1] concerns PC-3. In words: Antitumor activity against human PC-3 cells incubated for 72 hrs by SRB calorimetric assay. As to conditions: PC-3, 72 h. In kind it is functional, cell-based. (In general: The SRB assay estimates cell density from bound dye.)
The subject of another series is BXPC-3. Nature of the series: Antitumor activity against human BXPC-3 cells incubated for 48 to 72 hrs by MTS Assay. The class given is functional, cell-based.
The next series relates to Capan-2. Nature of the series: Antitumor activity against human Capan-2 cells incubated for 48 to 72 hrs by MTS Assay. The class given is functional, cell-based.
The subject of a further series is THP-1. Nature of the series: Antitumor activity against human THP1 cells. In kind it is functional, cell-based.
A further series has as its system HCT-116. Nature of the series: Antitumor activity against human HCT116 cells. The class given is functional, cell-based.
The test system of the next series is HT-29. In words: Antitumor activity against human HT29 cells. The class given is functional, cell-based.
A further series concerns U-937. In words: Antitumor activity against human U937 cells. The class given is functional, cell-based.
For series [2], the system named is HL-60. In words: Antitumor activity against human HL60 cells. In kind it is functional, cell-based.
The test system of another series is B16. Nature of the series: Antitumor activity against mouse B-16 cells. The class given is functional, cell-based.
For another series, the system named is HeLa. In words: Antitumor activity against human HeLa cells. The class given is functional, cell-based.
Series [3] concerns HL-60. Nature of the series: Antitumor activity against human HL60 cells assessed as cell growth incubated for 1 day by MTT assay. The class given is functional, cell-based. The note with it: HL-60, 24 h. On the technique in general: Tetrazolium dyes change colour on reduction, which living cells bring about.
A short description of series [4]: Cytotoxicity against human WI-38 cells assessed as cell growth incubated for 1 day by MTT assay. The class given is toxicity, cell-based.
In series [5] the test system is HL-60. In words: Induction of apoptosis in human HL-60 cells assessed as effective dose. In kind it is functional. The note with it: read-out: ED50 (the source's name).
The test system of series [6] is HepG2. In words: Antitumor activity against human HepG2 cells incubated for 72 hrs by SRB calorimetric assay. The class given is functional, cell-based. The note with it: HepG2, 72 h.
For series [7], the system named is MCF7. Nature of the series: Antitumor activity against human MCF7 cells incubated for 72 hrs by MTT assay. In kind it is functional, cell-based. As to conditions: MCF7, 72 h.
In the next series the test system is A549. In words: Antitumor activity against human A549 cells incubated for 72 hrs by MTT assay. The class given is functional, cell-based. The note with it: A549, 72 h.
The test system of the next series is K562. Nature of the series: Antitumor activity against human K562 cells incubated for 24 hrs by CCK-8 assay. The class given is functional, cell-based. As to conditions: K562, 24 h.
Series [8] concerns MCF7. In words: Antitumor activity against human MCF-7 incubated for 48 hrs by MTT assay. In kind it is functional, cell-based. As to conditions: MCF7, 48 h.
Series [9] deals with HepG2. In words: Antitumor activity against human HepG2 incubated for 48 hrs by MTT assay. The note with it: HepG2, 48 h. In kind it is functional, cell-based.
The next series deals with L5178Y. Nature of the series: Cytotoxicity against mouse L5178Y cells. In kind it is functional.
A further series concerns Pichia kudriavzevii. Nature of the series: Antifungal activity against Pichia kudriavzevii IFO 0590 assessed as inhibition of fungal growth incubated for 72 hrs by broth dilution method. The class given is functional.
The test system of a further series is Rhizopus delemar. In words: Antifungal activity against Rhizopus delemar IAM 6015 assessed as inhibition of fungal growth incubated for 72 hrs by broth dilution method. In kind it is functional. In general terms: In broth dilution the organism is exposed to a series of concentrations in liquid medium.
The subject of another series is Aspergillus japonicus. Nature of the series: Antifungal activity against Aspergillus japonicus IAM 2016 assessed as inhibition of fungal growth incubated for 72 hrs by broth dilution method. The class given is functional.
The test system of the next series is Cyberlindnera jadinii. Nature of the series: Antifungal activity against Cyberlindnera jadinii IFO 0396 assessed as inhibition of fungal growth incubated for 72 hrs by broth dilution method. In kind it is functional. The note with it: Williopsis jadinii.
The next series relates to Rhizomucor pusillus. In words: Antifungal activity against Rhizomucor pusillus IAM 6122 assessed as inhibition of fungal growth incubated for 72 hrs by broth dilution method. The class given is functional.
In the next series the test system is Saccharomyces cerevisiae. Nature of the series: Antifungal activity against Saccharomyces cerevisiae IFO 0304 assessed as inhibition of fungal growth incubated for 72 hrs by broth dilution method. The class given is functional.
In a further series the test system is Penicillium chrysogenum. In words: Antifungal activity against Penicillium chrysogenum1AM 7106 assessed as inhibition of fungal growth incubated for 72 hrs by broth dilution method. In kind it is functional. The note with it: 1AM 7106.
Series [10] can be described thus: Toxicity in CDF1 mouse allografted with mouse […] cells assessed as lethal dose administered for 6 days ,ip. The class given is cell-based. The note with it: in vivo, time 6 day.
The nature of series [11]: Antiproliferative activity against human U87 cells overexpressing miR-9 assessed as cell viability incubated for 48 hrs by Cell Counting Kit-8 assay. The class given is functional, cell-based, U-87MG ATCC. As to conditions: U-87 MG.
Series [12] relates to PC-3. Nature of the series: Cytotoxicity against human PC-3 cells incubated for 48 hrs by CCK-8 assay. In kind it is functional, cell-based. As to conditions: PC-3, 48 h.
In series [13] the test system is PC-3. In words: Antiproliferative activity against human PC3 cells assessed as cell viability incubated for 48 hrs by Cell Counting Kit-8 assay. The class given is functional, cell-based. The note with it: PC-3, 48 h.
Series [14] concerns HepG2. Nature of the series: Cytotoxicity against human HepG2 cells incubated for 48 hrs by CCK-8 assay. The note with it: HepG2, 48 h. In kind it is functional, cell-based.
Series [15] has as its system HepG2. In words: Antiproliferative activity against human HepG2 cells assessed as cell viability incubated for 48 hrs by Cell Counting Kit-8 assay. The class given is functional, cell-based. The note with it: HepG2, 48 h.
The nature of series [16]: Antiproliferative activity against human U-87 MG assessed as cell growth inhibition incubated for 48 hrs by Cell Counting Kit-8 assay. The class given is functional, cell-based, U-87MG ATCC.
In series [17] the test system is PC-3. Nature of the series: Antiproliferative activity against human PC-3 assessed as cell growth inhibition incubated for 48 hrs by Cell Counting Kit-8 assay. The class given is functional, cell-based. As to conditions: PC-3, 48 h.
Series [18] concerns HepG2. Nature of the series: Antiproliferative activity against human HepG2 assessed as cell growth inhibition incubated for 48 hrs by Cell Counting Kit-8 assay. In kind it is functional, cell-based. As to conditions: HepG2, 48 h.

≈ marks a conversion by molar mass, not a printed value.

`CO[C@H]1/C=C/C=C/C=C/C[C@H](OC(=O)[C@@H](C)NC(=O)CCCC(C)C)[C@H](C)[C@@H](O)/C(C)=C\CCc2cc(O)cc(c2)NC(=O)C1`: the concentration for half-maximal inhibition (IC50) in the series with PANC-1, in the series on PC-3 [1], in the series with BXPC-3 and in the series on Capan-2 was 100 nM in each case.

Regarding `CO[C@H]1/C=C/C=C/C=C/C[C@H](OC(=O)C2(NC(=O)C3=CCCCC3)CC2)[C@H](C)[C@@H](O)/C(C)=C\CCc2cc3c(c(c2O)NC(=O)C1)SCC(=O)N3`, the IC50 in the series on THP-1, in the series with HCT-116, with HT-29, with U-937, with HL-60 [2] and in the series on B16 was 50 nM in each case. In the series on HeLa, this molecule came in with an IC50 of 50 nM.

`CO[C@H]1/C=C/C=C/C=C/C[C@H](OC(=O)C2(NC(=O)C3CCCCC3)CC2)[C@H](C)[C@@H](O)/C(C)=C\CCc2cc(O)cc(c2O)NC(=O)C1`: in the series with HL-60 [3], the half-inhibitory concentration (IC50) was 7.7 nM. The IC50 at 1 day in series [4] was determined as 7.7 nM. Moreover, the EC50 with HL-60 [5] worked out at 7700 nM.

For the molecule `CO[C@H]1/C=C/C=C/C=C/C[C@H](O)[C@H](C)[C@@H](OC(=O)[C@@H](C)NC(=O)C(C)C)/C(C)=C\CCc2cc(O)cc(c2)NC(=O)C1`, the IC50 in the series with HepG2 [6], in the series with PANC-1, with PC-3 [1], in the series on BXPC-3 and in the series with Capan-2 was greater than 10000 nM in each case.

For `CO[C@H]1/C=C/C=C/C=C/C[C@H](OC(=O)[C@@H](C)NC(=O)C2CCCCC2)[C@H](C)[C@@H](O)/C(C)=C\CCc2cc(O)c(SC)c(c2O)NC(=O)C1`, in the series with HeLa, the IC50 came out at 15 nM.

As for `CO[C@H]1/C=C/C=C/C=C/C[C@H](O)[C@H](C)[C@@H](O)/C(C)=C\CCc2cc(O)cc(c2)NC(=O)C1`, the half-inhibitory concentration (IC50) in the series with MCF7 [7], in the series on A549 and in the series with K562 was greater than 10000 nM in each case.

`CO[C@H]1/C=C/C=C/C=C/C[C@H](OC(=O)[C@@H](C)NC(=O)C2=CCCC2)[C@H](C)[C@@H](O)/C(C)=C\CCc2cc(O)cc(c2)NC(=O)C1`: the IC50 with MCF7 [8] and in the series with HepG2 [9] was 6740 nM throughout.

For `CO[C@H]1/C=C/C=C/C=C/C[C@H](OC(=O)[C@@H](C)NC(=O)C2CCCCC2)[C@H](C)[C@@H](O)/C(C)=C\CCc2cc(O)cc(c2O)NC(=O)C1`, the MIC against L5178Y was 0.11 µg/mL (≈ 0.172 µM); in the series on Pichia kudriavzevii it was 4 µg/mL (≈ 6.26 µM); in the series with Rhizopus delemar, 4 µg/mL (≈ 6.26 µM); in the series with Aspergillus japonicus, 4 µg/mL (≈ 6.26 µM); in the series with Cyberlindnera jadinii, 4 µg/mL (≈ 6.26 µM); in the series with Rhizomucor pusillus, 4 µg/mL (≈ 6.26 µM). The MIC in the series with Saccharomyces cerevisiae and in the series with Penicillium chrysogenum was 4 µg/mL (≈ 6.26 µM) in each case. In addition, the median lethal dose (LD50) at 144 h in series [10] was determined as 80 mg/kg.

For `CO[C@H]1/C=C/C=C/C=C/C[C@H](OC(C)=O)[C@H](C)[C@@H](O)/C(C)=C\CCc2cc(O)cc(c2)NC(=O)C1`, the IC50 in the series on MCF7 [7], with A549 and in the series on K562 was greater than 10000 nM throughout.

With `CO[C@H]1/C=C/C=C/C=C/C[C@H](OC(=O)[C@@H](C)NC(=O)C2CCCCC2)[C@H](C)[C@@H](O[C@@H]2O[C@H](CO)[C@@H](O)[C@H](O)[C@H]2O)/C(C)=C\CCc2cc(O)cc(c2O)NC(=O)C1`, the IC50 in series [11] was no less than 2020 nM; in the series on PC-3 [12], 4380 nM; with PC-3 [13], no less than 2020 nM; in the series with HepG2 [14] it was 2200 nM; in the series with HepG2 [15] it was no less than 2020 nM.

As for `CO[C@@H]1CC(=O)Nc2c(O)c3cc4c2[C@H]1[C@@H](/C=C/C=C/C[C@H](OC(=O)[C@@H](C)NC(=O)C1CCCCC1)[C@H](C)[C@@H](O)/C(C)=C\CC3)O4`, the figures for the IC50 (in series [16]; in the series with PC-3 [17]; in the series with HepG2 [18]) were 7010 nM, 2210 nM and 610 nM, respectively.

In general, IC50 refers to the concentration that gives 50% inhibition. One may read the LD50 as the dose at which mortality reaches 50%.
